Read-outs that look alike come from different tables or passages of the source.
Experiments:
[1] = target: T1, RORγ ligand-binding domain (Homo sapiens, UniProt P51449); experiment: RORγ Reporter Assay (Gal4); format: cell-based
T1 construct: Gal4 (galactose-responsive transcription factor); expressed in transfected cells; host or cells: HEK293, transient co-transfection
T1 sequence (P51449 269-508 limits assumed): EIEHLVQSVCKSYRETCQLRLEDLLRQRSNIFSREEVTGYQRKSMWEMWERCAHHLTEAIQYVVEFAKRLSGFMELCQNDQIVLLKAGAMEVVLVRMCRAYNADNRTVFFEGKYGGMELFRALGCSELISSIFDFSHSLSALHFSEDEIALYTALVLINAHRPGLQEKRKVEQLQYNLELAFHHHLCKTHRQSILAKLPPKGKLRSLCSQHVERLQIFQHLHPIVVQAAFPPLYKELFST
Method: The HEK293 cell line is co-transfected transiently with two plasmids, one with the RORγ ligand-binding domain fused to galactose-responsive transcription factor (Ga14), and the other with the luciferase reporter gene and Gal binding sites (UAS). This construction allows to determine the RORT activity in a cellular system through the measurement of luminescence.
A suspension of RORγ reporter cells was dispensed into plates and cultured 2 h at 37° C. and 5% CO2. Media formulation consisted in DMEM/F-12 medium (Gibco) supplemented with 10% heat inactivated FBS (Sigma-Aldrich), non-essential aminoacids (Sigma-Aldrich), 2 mM Glutamax (Gibco) and 100 U/mL penicillin (Sigma-Aldrich). Dose-response curves with compounds were prepared in 100% DMSO and further diluted 100-fold in culture medium. Compound solutions were added to the plate containing cells (final DMSO concentration of 0.1%) and incubated for 24 h at 37° C. and 5% CO2. Luciferase detection reagent was added to each well, and relative light units (RLUs) were quantified from each assay well using a plate reading luminometer.
Values of average RLU±S.D. were computed for all treatment sets, followed by the calculations of percent-reduction of RORT activity in response to respective test compound. The following formula was used: activity=100*[1−[[…]] where the theoretical minimum reduction (0% reduction). […] These calculations were performed in excel-fit software using X-204 model curve.

[2] = tested on: IL-17A secretion in activated PBMCs; experiment: IL-17A secretion in activated PBMCs; format: cell-based; details: human PBMCs stimulated with CD3/CD28 Dynabeads for 48 h, absolute IC50
From the text: Heparin-treated whole blood from healthy human volunteers was supplied from Hospital de Sant Pau (Barcelona) under the approval of the local ethical review board for human studies (Hospital de Sant Pau, Barcelona, Spain). Human peripheral blood mononuclear cells (PBMCs) were isolated from healthy human volunteers by density gradient centrifugation using the Ficoll-Paque (GE Healthcare). PBMCs were suspended in cell culture medium which consisted on RPMI 1640 medium (Sigma-Aldrich) containing 10% heat inactivated fetal bovine serum (Sigma-Aldrich), 2 mM L-Glutamine (Gibco), 20 mM Hepes (Gibco) and 100 U/mL penicillin (Sigma-Aldrich). Cells were seeded in 384-well plate (DiscoverX), at 40,000 cells per well and cultured 2 h at 37° C. and 5% CO2.
Dose-response curves with compounds were prepared using a 5-fold serial dilution (10 concentrations) in 100% DMSO and further diluted 100-fold in culture medium. Compound solutions (5 μL) were added to the plate containing cells (final DMSO concentration of 0.1%) and incubated for 30 min. Then, cells were stimulated with CD3/CD28 Dynabeads (ThermoFisher, at a bead-to-cell ratio of 1:1) for 48 h at 37° C. and 5% CO2.
IL-17A levels in supernatant were determined by immunoassay using hIL17A QBeads (Intellicyt) and by fluorescence analysis in iQue flow cytometer following the manufacturer's instructions. Inhibition of IL-17A secretion was calculated using the following formula: inhibition=100*[1−[(x−mean basal condition)/(mean top condition—mean basal condition)]]. Activated DMSO-treated cells were used as top condition and activated GNE09461 (10 μM)-treated cells as basal condition.

[3] = HEK293 cells, luciferase reporter, 24 h incubation, absolute IC50, read-out: IC50

## CCN(Cc1ccc(C(F)(F)F)cn1)c1ncnc2c1c(F)cn2C[C@@H]1CCN(CC(N)=O)C[C@H]1O (relative stereo) [P6-28″, rel-2-((3R,4R)-4-((4-(ethyl((5-(trifluoromethyl)pyridin-2-yl)methyl)amino)-5-fluoro-7H-pyrrolo[2,3-d]pyrimidin-7-yl)methyl)-3-hydroxypiperidin-1-yl)acetamide]
[1]; [3]
  IC50: 8.6 nM
[2]; Homo sapiens, PBMC, 48 h
  IC50: 53 nM

## CCN(Cc1ccc(-n2cccn2)cc1)c1ncnc2c1ccn2C[C@@H]1CCN(CC(N)=O)C[C@H]1O (relative stereo) [P6-30″, rel-2-((3R,4R)-4-((4-((4-(1H-pyrazol-1-yl)benzyl)(ethyl)amino)-7H-pyrrolo[2,3-d]pyrimidin-7-yl)methyl)-3-hydroxypiperidin-1-yl)acetamide]
[1]; [3]
  IC50: 6.5 nM
[2]; Homo sapiens, PBMC, 48 h
  IC50: 100 nM

## CCN(Cc1ccc(C(F)(F)F)c(F)c1)c1ncnc2c1ccn2C[C@@H]1CCN(CC(N)=O)C[C@H]1O (relative stereo) [P6-31″, rel-2-((3R,4R)-4-((4-(ethyl(3-fluoro-4-(trifluoromethyl)benzyl)amino)-7H-pyrrolo[2,3-d]pyrimidin-7-yl)methyl)-3-hydroxypiperidin-1-yl)acetamide]
[1]; [3]
  IC50: 1.9 nM
[2]; Homo sapiens, PBMC, 48 h
  IC50: 6 nM

## CCN(Cc1ccc(C(F)(F)F)cc1F)c1ncnc2c1ccn2C[C@@H]1CCN(CC(N)=O)C[C@H]1O (relative stereo) [P6-32″, rel-2-((3R,4R)-4-((4-(ethyl(2-fluoro-4-(trifluoromethyl)benzyl)amino)-7H-pyrrolo[2,3-d]pyrimidin-7-yl)methyl)-3-hydroxypiperidin-1-yl)acetamide]
[1]; [3]
  IC50: 2 nM
[2]; Homo sapiens, PBMC, 48 h
  IC50: 8.4 nM

## NC(=O)CN1CC[C@@H](Cn2ccc3c(N(Cc4ccc(-n5cccn5)cc4)C4CC4)ncnc32)[C@H](O)C1 (relative stereo) [P6-33″, rel-2-((3R,4R)-4-((4-((4-(1H-pyrazol-1-yl)benzyl)(cyclopropyl)amino)-7H-pyrrolo[2,3-d]pyrimidin-7-yl)methyl)-3-hydroxypiperidin-1-yl)acetamide]
[1]; [3]
  IC50: 8.5 nM
[2]; Homo sapiens, PBMC, 48 h
  IC50: 9.9 nM

## CCN(Cc1ccc(-n2cccn2)cc1)c1ncnc2c1ccn2C[C@@]1(O)CCN(CC(N)=O)C[C@@H]1O (relative stereo) [R5-1″, rel-2-((3R,4R)-4-((4-((4-(1H-pyrazol-1-yl)benzyl)(ethyl)amino)-7H-pyrrolo[2,3-d]pyrimidin-7-yl)methyl)-3,4-dihydroxypiperidin-1-yl)acetamide]
[1]; [3]
  IC50: 13 nM
[2]; Homo sapiens, PBMC, 48 h
  IC50: 80 nM

## NC(=O)CN1CC[C@](O)(Cn2ccc3c(N(Cc4ccc(-n5cccn5)cc4)C4CC4)ncnc32)[C@@H](O)C1 (relative stereo) [R5-2″, Rel-2-((3R,4R)-4-((4-((4-(1H-pyrazol-1-yl)benzyl)(cyclopropyl)amino)-7H-pyrrolo[2,3-d]pyrimidin-7-yl)methyl)-3,4-dihydroxypiperidin-1-yl)acetamide]
[1]; [3]
  IC50: 8.1 nM
[2]; Homo sapiens, PBMC, 48 h
  IC50: 7.4 nM

## Cn1cc(-c2ccc(CN(c3ncnc4c3ccn4C[C@@]3(O)CCN(CC(N)=O)C[C@@H]3O)C3CC3)c(F)c2)cn1 (relative stereo) [R5-3″, rel-2-((3R,4R)-4-((4-(cyclopropyl(2-fluoro-4-(1-methyl-1H-pyrazol-4-yl)benzyl)amino)-7H-pyrrolo[2,3-d]pyrimidin-7-yl)methyl)-3,4-dihydroxypiperidin-1-yl)acetamide]
[1]; [3]
  IC50: 4 nM
[2]; Homo sapiens, PBMC, 48 h
  IC50: 11 nM

## NC(=O)CN1CC[C@](O)(Cn2ccc3c(N(Cc4ccc(-n5cccn5)cc4F)C4CC4)ncnc32)[C@@H](O)C1 (relative stereo) [R5-4″, rel-2-((3R,4R)-4-((4-(cyclopropyl(2-fluoro-4-(1H-pyrazol-1-yl)benzyl)amino)-7H-pyrrolo[2,3-d]pyrimidin-7-yl)methyl)-3,4-dihydroxypiperidin-1-yl)acetamide]
[1]; [3]
  IC50: 4.3 nM
[2]; Homo sapiens, PBMC, 48 h
  IC50: 22 nM

## NC(=O)CN1CC[C@](O)(Cn2ccc3c(N(Cc4ccc(C(F)(F)F)cc4)C4CC4)ncnc32)[C@@H](O)C1 (single isomer, unassigned) [Example L5-1-1-2]
[1]; [3]
  IC50: 2 nM
[2]
  IC50: 2.3 nM

## CCN(Cc1ccc(C(F)(F)F)cc1)c1ncnc2c1ccn2C[C@@]1(O)CCN(CC(N)=O)C[C@@H]1O (single isomer, unassigned) [Example L5-2-1-1]
[1]; [3]
  IC50: 1.4 nM
[2]
  IC50: 2.7 nM

## CCN(Cc1ccc(C(F)(F)F)cc1)c1ncnc2c1ccn2C[C@@]1(O)CCN(CC(N)=O)C[C@@H]1O (single isomer, unassigned) [Example L5-2-1-2]
[1]; [3]
  IC50: 2 nM
[2]; Homo sapiens, PBMC, 48 h
  IC50: 3.1 nM

## CCN(Cc1ccc(C(F)(F)F)cc1F)c1ncnc2c1ccn2C[C@@]1(O)CCN(CC(N)=O)C[C@@H]1O (single isomer, unassigned) [Example L5-3-1-1]
[1]; [3]
  IC50: 3 nM
[2]; Homo sapiens, PBMC, 48 h
  IC50: 9.8 nM

## CCN(Cc1ccc(C(F)(F)F)cc1F)c1ncnc2c1ccn2C[C@@]1(O)CCN(CC(N)=O)C[C@@H]1O (single isomer, unassigned) [Example L5-3-1-2]
[1]; [3]
  IC50: 4.4 nM
[2]
  IC50: 10 nM

## NC(=O)CN1CC[C@@H](Cn2ccc3c(N(Cc4ccc(C(F)(F)F)cc4)C4CC4)ncnc32)[C@H](O)C1 (single isomer, unassigned) [Example P6-13-1]
[1]; [3]
  IC50: 1.6 nM
[1]; stated as a bound only (Tables 5 a, 6, 7), read-out: Gal4 assay IC50
  IC50: < 100 nM
[2]; Homo sapiens, PBMC, 48 h
  IC50: 1.1 nM

## NC(=O)CN1CC[C@@H](Cn2ccc3c(N(Cc4ccc(C(F)(F)F)cc4)C4CC4)ncnc32)[C@H](O)C1 (single isomer, unassigned) [Example P6-13-2]
[1]; [3]
  IC50: 2 nM
[2]
  IC50: 1.3 nM

## NC(=O)CN1CC[C@@H](Cn2cc(F)c3c(N(Cc4ccc(C(F)(F)F)cc4)C4CC4)ncnc32)[C@H](O)C1 (single isomer, unassigned) [Example P6-14-1]
[1]; [3]
  IC50: 3.8 nM
[2]
  IC50: 18 nM

## NC(=O)CN1CC[C@@H](Cn2cc(F)c3c(N(Cc4ccc(C(F)(F)F)cc4)C4CC4)ncnc32)[C@H](O)C1 (single isomer, unassigned) [Example P6-14-2]
[1]; [3]
  IC50: 1 nM
[2]
  IC50: 1.7 nM

## NC(=O)CN1CC[C@@H](Cn2ccc3c(N(Cc4ccc(C(F)(F)F)cn4)C4CC4)ncnc32)[C@H](O)C1 (single isomer, unassigned) [Example P6-23-1]
[1]; [3]
  IC50: 9.9 nM
[2]; Homo sapiens, PBMC, 48 h
  IC50: 59 nM

## NC(=O)CN1CC[C@@H](Cn2ccc3c(N(Cc4ccc(C(F)(F)F)cn4)C4CC4)ncnc32)[C@H](O)C1 (single isomer, unassigned) [Example P6-23-2]
[1]; [3]
  IC50: 15 nM
[2]
  IC50: 98 nM

## CCN(Cc1ccc(C(F)(F)F)cc1)c1ncnc2c1ccn2C[C@@H]1CCN(CC(N)=O)C[C@H]1O (single isomer, unassigned) [Example P6-24-1]
[1]; [3]
  IC50: 4.9 nM
[2]
  IC50: 9.9 nM

## CCN(Cc1ccc(C(F)(F)F)cc1)c1ncnc2c1ccn2C[C@@H]1CCN(CC(N)=O)C[C@H]1O (single isomer, unassigned) [Example P6-24-2]
[1]; [3]
  IC50: 9.1 nM
[2]
  IC50: 170 nM

## CC(C)N(Cc1ccc(C(F)(F)F)cc1)c1ncnc2c1ccn2C[C@@H]1CCN(CC(N)=O)C[C@H]1O (single isomer, unassigned) [Example P6-25-1]
[1]; [3]
  IC50: 12 nM
[2]; Homo sapiens, PBMC, 48 h
  IC50: 110 nM

## CC(C)N(Cc1ccc(C(F)(F)F)cc1)c1ncnc2c1ccn2C[C@@H]1CCN(CC(N)=O)C[C@H]1O (single isomer, unassigned) [Example P6-25-2]
[1]; [3]
  IC50: 30 nM
[2]
  IC50: 130 nM

## NC(=O)CN1CC[C@@H](Cn2cnc3c(N(Cc4ccc(C(F)(F)F)cc4)C4CC4)ncnc32)[C@H](O)C1 (single isomer, unassigned) [Example P6-26-2]
[1]; [3]
  IC50: 5 nM
[2]; Homo sapiens, PBMC, 48 h
  IC50: 65 nM

Source: US11780843B2, “Compounds active towards nuclear receptors” (NUEVOLUTION A/S, priority 2020, dated 2023)
